Test results taken from US11446260B2, “Pharmaceutical composition of S-ketamine hydrochloride” (Janssen Pharmaceutica NV, priority 2013, dated 2022).

What was measured:
Format in all cases: cell-based
S. aureus = experiment: Full AET Challenge Test; conditions: Staphylococcus aureus; summary of Examples 1 and 2
E. coli = experiment: Full AET Challenge Test; conditions: Escherichia coli; summary of Examples 1 and 2
P. aeruginosa = experiment: Full AET Challenge Test; conditions: Pseudomonas aeruginosa; summary of Examples 1 and 2
M. luteus = experiment: Full AET Challenge Test; conditions: Micrococcus Luteus; summary of Examples 1 and 2
S. haemolyticus = experiment: Challenge test (Example 1); conditions: Staphylococcus haemolyticus; summary of Examples 1 and 2
A. brasiliensis = experiment: Full AET Challenge Test; conditions: Aspergillus brasiliensis; summary of Examples 1 and 2
C. albicans = experiment: Full AET Challenge Test; conditions: Candida albicans; summary of Examples 1 and 2

With `CN[C@]1(c2ccccc2Cl)CCCCC1=O.Cl` [S-ketamine hydrochloride, (S)-2-(2-chlorophenyl)-2-(methylamino)cyclohexanone hydrochloride] the “antimicrobial properties (summary in words)” value (shortened to “antimicrobial properties”) (S. aureus) was “strong antimicrobial properties”, the “antimicrobial properties” value (E. coli) was “strong antimicrobial properties” and the “antimicrobial properties” value (P. aeruginosa) was “strong antimicrobial properties”. The “antimicrobial properties” value (M. luteus) was “strong antimicrobial properties”, the “antimicrobial properties” value (S. haemolyticus) was “strong antimicrobial properties” and the “antimicrobial properties” value (A. brasiliensis) was “some inhibitory activity”. For the same compound, the “antimicrobial properties” value (C. albicans) was “strong antimicrobial properties”.
